SMILES strings stand for the structures.

Experimental findings from a melting point compilation (Tetko et al.) are described below.

In general, melting point refers to the temperature, or range, at which the solid turns liquid. The compound `Clc1ccc(C=Nc2n[nH]c(N=Cc3ccc(Cl)cc3)c2Cc2ccc(Cl)cc2)cc1` returned a melting point of 228 to 230 °C.
In the case of `O=C(ON=C(c1cc2ccccc2o1)c1cc2ccccc2o1)c1ccccc1` it was 154 to 155 °C; in that of `O=C(O)c1ccc(Cl)cc1[N+](=O)[O-]`, 144 °C; in that of `Cc1ccccc1/C=C(/C#N)c1nc2ccccc2c(=O)[nH]1`, 258 °C.
Regarding `COc1ccc(C#N)cc1[N+](=O)[O-]`, the melting point was 148 to 151 °C.
Under `CCCOC(=O)C1=C(C)NC(C)=C(C(=O)OCCC)C1c1ccco1` stands 112 °C; under `O=Cc1ccc(C=CC(=O)O)cc1`, 250 to 255 °C.
The compound `OC1(c2ccc(Cl)c(C(F)(F)F)c2)CCN(CCCC(c2ccc(F)cc2)c2ccc(F)cc2)CC1` had a melting point of 106 °C.
Under `COC(=O)c1ccc(NC(C)=O)c(NC(C)=O)c1` stands 225 °C; under `CC[C@H](C)[C@H](NC(=O)OC(C)(C)C)C(=O)O`, 69 °C.
In the case of `Clc1ccc(Nc2ncnc3c2cnn3-c2ccccc2)cc1` it was 218 to 220 °C; in that of `O=Cc1ccc([N+](=O)[O-])cc1[N+](=O)[O-]`, 72 °C; in that of `Nc1ccccc1/C=C/c1cc(/C=C/c2ccccc2)c([N+](=O)[O-])cc1[N+](=O)[O-]`, 193 °C.
In the case of `CCCCCCCCC=CCCCCCCCC(=O)O` it was 45 °C; in that of `CC12CCCCC1CCC1C2CCC2(C)C1CCC2(O)C#CCl` (centres undefined), 163 °C.
As for `Cc1oc(-c2ccc(Cl)cc2)cc1C(=O)O`, the melting point was 231 to 232 °C.
In turn, `CCCCCCCCCCCO` came in with a melting point of 19 °C.
Under `O=C1OC2(Cc3ccccc31)C(=O)c1ccccc1C2=O` stands 205 °C; under `CCC(O)(COC(N)=O)c1ccccc1` (centres undefined), 55 °C; under `OCC1(O)COC(O)(CO)CO1` (centres undefined), 79 °C.
In the case of `CN(CCO)CCO` it was -21 °C; in that of `COC(=O)C1(S(=O)(=O)c2ccc(Br)cc2)CC1`, 124 °C; in that of `CC(CCC(=O)O)C1CCC2C3C(O)CC4CC5(CCC4(C)C3CC(=O)C12C)OCCO5` (centres undefined), 219 °C.
In the case of `CCCCOC(=O)C=CC(=O)OCCCC` it was -85 °C.
On to `COc1cccc2oc(-c3ccccc3)cc(=O)c12`, for which the melting point came to 130 °C.
In the case of `O=C(Nc1ccccc1)OC1C=CC=CCC1OC(=O)Nc1ccccc1` (centres undefined) it was 179 to 180 °C; in that of `CC1(c2ccccc2)CC(C(=NNC(O)=S)c2cc3ccccc3o2)C1` (centres undefined), 191 to 192 °C; in that of `COc1c(Cl)ccc(Cl)c1Cl`, 45 °C.
Under `O=C1OC(c2ccccc2)=NC1=Cc1cccs1` stands 167 °C.
In the case of `COC(=O)c1ccc(I)cc1O` it was 69 °C; in that of `O=C1c2ccccc2C(=O)c2c(NCCO)ccc(NCCO)c21`, 248 °C; in that of `Cc1cc(C(F)(F)F)n2nc(N)c(/N=N/c3c(Cl)cc(Cl)cc3Cl)c2n1`, 189 °C.
As for `CC(C)(C)NC(=O)C1CCC2C3CCC4NC(=O)C=CC4(C)C3CCC12C` (centres undefined), the melting point turned out to be 253 °C.
In the case of `N#Cc1cc(Br)ccc1O` it was 160 to 162 °C; in that of `O=C1NCNC1(c1ccccc1)c1ccccc1`, 183 °C; in that of `OCC1(O)OCC(O)C(O)C1O` (centres undefined), 119 °C.
In turn, `CCOC(=O)C1=C(N)CCCC1` yielded a melting point of 70 to 74 °C.
Consider `C#CCNC(N)=O`, for which the melting point lay in the range of 130 to 131 °C.
In the case of `CC(C)OC(=O)C1=C(C(=O)O)C2c3ccccc3C1c1ccccc12` it was 176 °C; in that of `O=S(=O)(Cl)c1ccc2c(c1)OCCO2`, 66 to 68 °C; in that of `Clc1cccc2c(C#Cc3ccccc3)c3cccc(Cl)c3c(C#Cc3ccccc3)c12`, 167 to 170 °C.
In the case of `CC1CNC(C(O)(C2=NCC(C)N2)C2=NCC(C)N2)=N1` (centres undefined) it was 178 to 180 °C.
In the case of `Nc1ncc(Cl)cc1I` it was 97 °C; in that of `Oc1ccc(O)c(C=NCCN=Cc2cc(O)ccc2O)c1`, 125 to 127 °C.
`CCCCCCCCCCCCCOCC1CO1` (centres undefined) had a melting point of 1.6 °C.
In the case of `Cc1ccnc(NS(=O)(=O)c2ccc(N)cc2)n1` it was 234 °C.
In the case of `Clc1ccccc1C=C1c2ccccc2-c2ccccc21` it was 69.5 °C; in that of `CCN(CC)CCN1C(=O)CN=C(c2ccccc2F)c2cc(Cl)ccc21`, 79.5 °C.
In turn, `O=C(O)C=Cc1ccccc1F` registered a melting point of 179 °C.
In the case of `CC(=O)/C(=N\Nc1cccc([N+](=O)[O-])c1)C(=O)C(F)(F)F` it was 205 to 206 °C; in that of `O=Cc1ccc(-n2cccn2)cc1`, 82 to 83 °C.
For the compound `O=C(O)c1coc2ccccc2c1=O`, the melting point came to 201 °C.
In turn, `NC(CCN(Cc1ccco1)S(=O)(=O)c1ccc(Cl)cc1)=NO` came in with a melting point of 115 to 117 °C.
Under `CC12CCC(C(=CC(=O)NC(N)=O)C1=O)C2(C)C` (centres undefined) stands 206 °C.
Under `N#Cc1c(-c2cccc(O)c2)c(C#N)c(=O)n(N)c1N` stands 323 °C.
Under `CC(=O)N1CCN(CCN2C3=C(C(=O)CC(C)(C)C3)C(c3ccc(Cl)cc3)C3=C2CC(C)(C)CC3=O)CC1` stands 213 °C; under `COc1ccc(Br)c(C)c1C(=O)O`, 163 °C.
Compound `c1ccc2c(c1)OCCOCCOCCOCCOc1ccccc1OCCO2` gave a melting point of 48 to 52 °C.
In the case of `CC(=O)Nc1cc(C(F)(F)F)cc(C(F)(F)F)c1` it was 161 °C.
`CSc1nc(N)nc(-c2cnccn2)n1` showed a melting point of 215 °C.
Under `COc1cc(CC(=O)O)cc(Br)c1O` stands 183 to 185 °C.
In the case of `O=Cc1ccc(N2CCOCC2)c([N+](=O)[O-])c1` it was 53 to 55 °C; in that of `Cc1c(-c2ccccc2)c2ccccc2n1C`, 111 °C; in that of `O=Cc1csnn1`, 85 to 87 °C.
In the case of `O=C(O)c1c(F)c(Cl)c(F)c(Cl)c1F` it was 142 to 143 °C.
`Clc1cn2ccsc2n1` gave a melting point of 85 °C.
Under `CC(=O)c1ccc(OCc2ccc(F)cc2)c([N+](=O)[O-])c1` stands 105 to 107 °C.
Under `Oc1ccnc2cc(C(F)(F)F)ccc12` stands 266 to 270 °C; under `CC12C=CC(=O)C=C1CCC1C3CC(O)C(O)(C(=O)CO)C3(C)CC(O)C12F` (centres undefined), 269 °C.
In the case of `C1=CC2c3ccccc3C1C21CC1` it was 43 °C.
The compound `NS(=O)(=O)c1cc(F)ccc1F` gave a melting point of 141 °C.
Under `CC1=C(C(=O)O)CCCO1` stands 119 °C; under `NS(=O)(=O)c1ccc(SCCCO)c([N+](=O)[O-])c1`, 163 °C; under `O=C(NCc1ccccn1)C(F)(F)F`, 75 °C.
Compound `COc1cc(C=CC=O)ccc1O` displayed a melting point of 84 °C.
Under `O=C(O)CCC(=O)Nc1ccc(S(=O)(=O)Nc2nccs2)cc1` stands 194 °C.
In the case of `O=C(O)c1ccc(C(=O)O)c(OC(F)(F)F)c1` it was 270 to 272 °C; in that of `O=Cc1cccn1-c1cc(Cl)cc(Cl)c1`, 150 to 152 °C; in that of `C=CCn1c(S)nnc1-c1ccc2ncccc2c1`, 211 to 214 °C.
Compound `Nc1ccc(-c2cn3c(n2)SCC3)cc1` showed a melting point of 225 to 226 °C.
In the case of `CN(C)CCO` it was -59 °C; in that of `S=C=Nc1cc(Br)ccc1Br`, 49 to 51 °C; in that of `O=P1(N(CCCl)CCCl)NCCCO1` (centres undefined), 51.5 °C.
In the case of `CC(=O)Cc1ccco1` it was 29 °C.
In the case of `CC1=C(C)C(C(C)C)C=C1Cc1ccccc1` (centres undefined) it was 54 °C.
In turn, `NC(CCc1ccccc1)CC(=O)O` (centres undefined) had a melting point of 223 to 227 °C.
Under `O=C(C1=NOC2C(=O)N(c3ccc(Cl)cc3)C(=O)C12)c1ccc(Cl)cc1` (centres undefined) stands 152 °C; under `O=Cc1ccc(Sc2ccc(Cl)cc2)c([N+](=O)[O-])c1`, 120 °C.
Regarding `CCCCCCCCCCCCCCCl`, the melting point came to 4.9 °C.
Under `Cc1onc(-c2ccccc2)c1C(=O)Cl` stands 24 to 25 °C; under `O=C(O)C1CCCCC1C(=O)OCCO` (centres undefined), 90 °C; under `O=C1C=C(NCc2ccc([N+](=O)[O-])cc2)C(=O)c2ccccc21`, 235 °C.
`CC(C)c1nsc(N)n1` had a melting point of 119 to 120 °C.
In the case of `NC(N)=Nc1nc(CSCCC(N)=NS(N)(=O)=O)cs1` it was 163 °C.
Under `O=c1oc(=O)c2ccccc2c2ccccc12` stands 223 to 227 °C.
Turning to `Cc1cccc2c(=O)c(=O)c12`, the melting point amounted to 121 °C.
In the case of `CC(CBr)c1ccccc1` (centres undefined) it was -59.3 °C.
In the case of `FC(F)(F)c1cc(Cl)c(I)c(Br)c1` it was 29 to 31 °C; in that of `Cc1ccccc1CN`, -30 °C; in that of `c1ccc(-c2nc3ccccc3nc2-c2ccc3ccccc3c2)cc1`, 121 to 122 °C.
Consider `Nc1cc(Cl)nc(N)n1`, for which the melting point came to 201 °C.
In the case of `O=C(Cn1c(=O)sc2ccc(Cl)cc21)N1CCN(CCO)CC1` it was 160 °C.
In turn, `C=CCc1cc(OC)c(OC)c(OC)c1OC` returned a melting point of 25 °C.
In the case of `COc1ccccc1C1OC(=O)CC1C(=O)O` (centres undefined) it was 124 to 125 °C.
In the case of `COc1cc(F)c(F)cc1C#N` it was 99 °C.
In the case of `CC/C(=N\O)C1=CC2(C)CCC1C2(C)C` (centres undefined) it was 107 °C; in that of `COc1cccc(CNC(=O)c2[nH]c3ccccc3c2CCO)c1`, 151 °C; in that of `CN(C)c1nc(=O)n(C2CCCCC2)c(=O)n1C`, 116 °C.
For the compound `O=Cc1ccc(-c2ccccc2Cl)o1`, the melting point is 75 to 78 °C.
